# Measurements: publication PMC10300102, “In vivo inhibition of nuclear ACE2 translocation protects against SARS-CoV-2 replication and lung damage through epigenetic imprinting” (Nature Communications, 2023)
# Where a SMILES comes first, the peptide text is derived from it. The star is where a group is joined. Myristoyl = CCCCCCCCCCCCCC(=O)*
# Tested on: SARS-CoV-2 ORF1ab and host gene expression
# Details: hamster, in vivo
smiles,measurement,value
CCCCCCCCCCCCCC(=O)N[C@H](C(=O)NCC(=O)N[C@H](C(=O)N[C@@H](CCCNC(=N)N)C(=O)N[C@@H](CC(=O)O)C(=O)N[C@@H](CCCNC(=N)N)C(=O)N[C@@H](CCCCN)C(=O)N[C@@H](CCCCN)C(=O)N[C@@H](CCCCN)C(=O)N[C@@H](CC(N)=O)C(=O)N[C@@H](CCCCN)C(=O)N[C@@H](C)C(=O)N[C@@H](CCCNC(=N)N)C(=O)N[C@@H](CO)C(=O)O)[C@@H](C)CC)[C@@H](C)O [NACE2i] (Myristoyl-TGIRDRKKKNKARS-OH),FC gene Cyp4v3,0.2095
same,FC gene ORF1ab,-2.2037
same,FC gene S,-2.258
same,"FC, gene 2410004B18Rik",0.5678
same,"FC, gene 4932438A13Rik",0.5459
same,"FC, gene Acat3",-0.674
same,"FC, gene Acly",-0.5062
same,"FC, gene Adnp2",0.5468
same,"FC, gene Aen",0.6316
same,"FC, gene Aff4",0.6064
same,"FC, gene Ahcy",-0.9648
same,"FC, gene Akap13",0.5493
same,"FC, gene Ankrd17",0.6698
same,"FC, gene Ap1s1",-0.5707
same,"FC, gene Ap3d1",0.5083
same,"FC, gene Aplnr",0.5871
same,"FC, gene Arhgap23",0.8043
same,"FC, gene Asph",-0.5094
same,"FC, gene Atf1",0.5582
same,"FC, gene Bbs4",0.6922
same,"FC, gene Bnip1",0.513
same,"FC, gene Btn1a1",0.5761
same,"FC, gene C2",2.567
same,"FC, gene Ccdc115",-0.5047
same,"FC, gene Ccr7",0.5204
same,"FC, gene Cdk4",-0.5201
same,"FC, gene Chd8",1.187
same,"FC, gene Chpt1",-0.6745
same,"FC, gene Ciao2a",-0.5045
same,"FC, gene Clcn7",0.7305
same,"FC, gene Cldn10",-0.6712
same,"FC, gene Clec2j",-0.5841
same,"FC, gene Cuedc1",-0.5402
same,"FC, gene Cyp4a32",0.9236
same,"FC, gene Cyth4",0.5449
same,"FC, gene D8Ertd738e",-0.5566
same,"FC, gene Dcps",0.5089
same,"FC, gene Ddx3x",0.6643
same,"FC, gene Ddx17",-0.6263
same,"FC, gene Ddx50",0.5809
same,"FC, gene Dnajb1",1.307
same,"FC, gene Dnajb4",0.8217
same,"FC, gene Dusp6",0.7087
same,"FC, gene Dusp8",0.9914
same,"FC, gene Edem2",-0.5407
same,"FC, gene Efcab6",-0.6582
same,"FC, gene Efhc2",0.6406
same,"FC, gene Efl1",0.5009
same,"FC, gene Egr2",1.468
same,"FC, gene Epb41l2",0.503
same,"FC, gene Epb41l4b",-0.6555
same,"FC, gene Epc1",0.5651
same,"FC, gene Erfl",0.7342
same,"FC, gene Fam210b",-0.5004
same,"FC, gene Fbxo34",0.5562
same,"FC, gene Fer1l4",0.5763
same,"FC, gene Fgfr2",-0.6329
same,"FC, gene Fnip1",1.067
same,"FC, gene Foxa1",-0.5875
same,"FC, gene Foxo4",-0.5985
same,"FC, gene Foxp1",0.7638
same,"FC, gene Frk",-0.5985
same,"FC, gene Fscn1",0.6051
same,"FC, gene Gadd45gip1",-0.6021
same,"FC, gene Galnt16",0.5879
same,"FC, gene Gcdh",-0.6082
same,"FC, gene Get3",-0.5368
same,"FC, gene Gm6760",-0.5229
same,"FC, gene Gm19935",0.6161
same,"FC, gene Gm36327",0.5888
same,"FC, gene Gpr108",-0.6108
same,"FC, gene Grcc10",-0.632
same,"FC, gene Gstm5",-0.5595
same,"FC, gene Hbs1l",0.5826
same,"FC, gene Hcfc2",0.539
same,"FC, gene Hddc3",-0.6233
same,"FC, gene Hes1",0.7365
same,"FC, gene Hes7",0.6772
same,"FC, gene Hnrnph3",0.5781
same,"FC, gene Hspa1a",3.192
same,"FC, gene Hspb8",0.5876
same,"FC, gene Ints1",-0.5112
same,"FC, gene Ints6",0.5796
same,"FC, gene Irgm2",0.8053
same,"FC, gene Itm2c",-0.5859
same,"FC, gene Josd2",-0.5145
same,"FC, gene Kcnb2",0.5599
same,"FC, gene Kdm2b",0.8792
same,"FC, gene Klf2",0.591
same,"FC, gene Klf6",1.611
same,"FC, gene Krcc1",-0.5435
same,"FC, gene Ldhb",0.9545
same,"FC, gene Lrch4",0.6982
same,"FC, gene Mat2b",-0.5576
same,"FC, gene Mcl1",0.7457
same,"FC, gene Mff",-0.5195
same,"FC, gene Mpnd",-0.5935
same,"FC, gene Mrgprb13",0.5244
same,"FC, gene Mrpl18",-0.5015
same,"FC, gene Msantd1",0.7207
same,"FC, gene Myo6",-0.795
same,"FC, gene Myoz2",-0.6449
same,"FC, gene Ndufc2",-0.5355
same,"FC, gene Nfat5",0.6106
same,"FC, gene Nfyc",0.5405
same,"FC, gene Nlrp9c",0.6509
same,"FC, gene Nr1d1",0.7307
same,"FC, gene Nr6a1",0.5193
same,"FC, gene Nrg1",1.2298
same,"FC, gene ORF1ab_REV",1.502
same,"FC, gene Olfr229",0.6277
same,"FC, gene Olfr648",0.5798
same,"FC, gene Olfr992",0.5742
same,"FC, gene Olfr1246",0.5289
same,"FC, gene Oser1",0.5067
same,"FC, gene Papss2",0.7496
same,"FC, gene Parp4",0.5117
same,"FC, gene Paxx",0.5674
same,"FC, gene Pcdh10",0.5344
same,"FC, gene Pcf11",0.7986
same,"FC, gene Pga5",0.5011
same,"FC, gene Pias3",-0.5192
same,"FC, gene Pigb",0.6695
same,"FC, gene Pllp",-0.5323
same,"FC, gene Ppargc1a",2.4524
same,"FC, gene Ppil3",0.791
same,"FC, gene Ppp1r10",1.995
same,"FC, gene Ppp2r1a",-0.5051
same,"FC, gene Prpsap1",-0.5066
same,"FC, gene Ptprf",-0.5908
same,"FC, gene Pum1",0.5225
same,"FC, gene Rac3",-0.6773
same,"FC, gene Ranbp3",0.6534
same,"FC, gene Rapgef6",0.5765
same,"FC, gene Rasgrp2",0.6502
same,"FC, gene Rbm39",0.6181
same,"FC, gene Rel",0.5472
same,"FC, gene Rnd1",2.009
same,"FC, gene Rora",0.5709
same,"FC, gene Rps6ka4",-0.6146
same,"FC, gene Rsad1",0.5304
same,"FC, gene Rtf2",0.5373
same,"FC, gene Rusf1",-0.6909
same,"FC, gene S",7.077
same,"FC, gene Samd11",0.6285
same,"FC, gene Sdf4",0.5035
same,"FC, gene Sema4f",1.3449
same,"FC, gene Serhl",1.282
same,"FC, gene Serpinb9f",0.5421
same,"FC, gene Serpinf1",0.5919
same,"FC, gene Sfpq",0.8832
same,"FC, gene Sftpd",-0.8403
same,"FC, gene Skil",0.9649
same,"FC, gene Slc8a2",0.6877
same,"FC, gene Slc25a1",-0.8686
same,"FC, gene Slc25a45",1.7301
same,"FC, gene Snrnp70",-0.5232
same,"FC, gene Socs2",1.6268
same,"FC, gene Sqle",-0.5283
same,"FC, gene St7",0.6724
same,"FC, gene Stc1",-0.7739
same,"FC, gene Sult1a1",-0.5479
same,"FC, gene Tcp11l2",-0.5998
same,"FC, gene Tecr",-0.5713
same,"FC, gene Tmbim6",-0.5766
same,"FC, gene Tmem35b",1.27
same,"FC, gene Tnfrsf12a",0.714
same,"FC, gene Tpgs1",-0.5572
same,"FC, gene Tra2b",1.01
same,"FC, gene Tspan12",-0.8782
same,"FC, gene Ttll8",-0.5897
same,"FC, gene Twist1",0.5929
same,"FC, gene Urah",-0.7905
same,"FC, gene Vpreb1",0.5028
same,"FC, gene Vtcn1",-0.6235
same,"FC, gene Xpo4",0.7242
same,"FC, gene Ybey",0.5779
same,"FC, gene Ypel3",-0.854
same,"FC, gene Zbtb10",0.9542
same,"FC, gene Zdhhc18",0.5354
same,"FC, gene Zfp68",0.8041
same,"NEC, Autophagy",-1.884
same,"NEC, Biological oxidations",-2.307
same,"NEC, COPI-mediated anterograde transport",-2.085
same,"NEC, Cilium Assembly",-1.905
same,"NEC, ER to Golgi Anterograde Transport",-1.892
same,"NEC, Macroautophagy",-1.884
same,"NEC, Organelle biogenesis and maintenance",-2.083
same,"NEC, The citric acid (TCA) cycle and respiratory electron transport",-2.083
same,expression of SARS-CoV-2 ORF1ab,significantly reduced
same,top 20 genes in the TLR4 pathway,downregulated
same,viral ORF1ab and S genes in alveoli,significantly downregulated
